Laboratory results as given in US8067611B2, “Substituted 1-(thiazolyl)-and 1-(isothiazolyl)pyrazol-4-ylacetic acids, processes for their preparation and their use as herbicides and plant growth regulators” (Bayer CropScience AG, priority 2008, dated 2011).

Assays:
harmful plants = assay: Pre-emergence herbicidal effect, greenhouse pot test; type: in vivo; settings: application rate of 1 kg or less of active substance per hectare, scored after about 3 weeks
Text: Seeds of monocotyledonous or dicotyledonous weed plants or crop plants are planted in wood-fiber pots in sandy loam and covered with soil. The compounds (I) according to the invention, formulated in the form of wettable powders (WP), are then applied as aqueous suspension or emulsion at a water application rate of 600 I/ha (converted) with the addition of 0.2% of wetting agent to the surface of the covering soil.
Following the treatment, the pots are placed in a greenhouse and kept under good growth conditions for the test plants. After about 3 weeks, the effect of the preparations is scored visually in comparison with untreated controls (herbicidal effect in percent (%): 100% effect=plants have died, 0% effect=as control plants).

[1] = system: weed-grasses and broad-leaved weeds; assay: Post-emergence herbicidal effect, greenhouse pot test; type: in vivo; settings: application rate of 1 kg and less of active substance per hectare, scored after 3 weeks
Experimental: Seeds of monocotyledonous or dicotyledonous weed plants or crop plants are planted in wood-fiber pots in sandy loam, covered with soil and grown in a greenhouse under good growth conditions. 2 to 3 weeks after sowing, the test plants are treated in the one-leaf stage. The compounds according to the invention, formulated in the form of wettable powders (WP), are then sprayed onto the green plant parts as aqueous suspension or emulsion at a water application rate of 600 I/ha (converted) with the addition of 0.2% of wetting agent. After 3 weeks' standing time of the test plants in the greenhouse under optimum growth conditions, the effect of the preparations is scored visually in comparison with untreated controls (herbicidal effect in percent (%): 100% effect=plants have died, 0% effect=as control plants).

SMILES | herbicidal pre-emergence activity against a number of harmful plants (harmful plants) | post-emergence activity against a broad spectrum of weed-grasses and broad-leaved weeds [1]
Cc1nn(-c2ccns2)c(-c2ccc(Br)s2)c1CC(=O)O [Compound 1-67] | good herbicidal pre-emergence activity | good post-emergence activity
Cc1nn(-c2ccns2)c(-c2ccc(Br)cn2)c1CC(=O)O [Compound 1-119] | good herbicidal pre-emergence activity | good post-emergence activity
COC(=O)Cc1c(C)nn(-c2ccns2)c1-c1ccccc1 [Compound 2-2] | good herbicidal pre-emergence activity | good post-emergence activity
COC(=O)Cc1c(C)nn(-c2ccns2)c1-c1ccc(Cl)cc1 [Compound 2-28] | good herbicidal pre-emergence activity | good post-emergence activity
COC(=O)Cc1c(C)nn(-c2ccns2)c1-c1ccc(Br)s1 [Compound 2-68] | good herbicidal pre-emergence activity | good post-emergence activity
COC(=O)Cc1c(C)nn(-c2ccns2)c1-c1ccccn1 [Compound 2-116] | good herbicidal pre-emergence activity | good post-emergence activity
COC(=O)Cc1c(C)nn(-c2ccns2)c1-c1ccc(Br)cn1 [Compound 2-120] | good herbicidal pre-emergence activity | good post-emergence activity
COC(=O)Cc1c(C)nn(-c2cc(C)ns2)c1-c1ccc(Cl)cc1 [Compound 2-147, Methyl[5-(4-chlorophenyl)-3-methyl-1-(3-methylisothiazol-5-yl)-1H-pyrazol-4-yl]acetate] | good herbicidal pre-emergence activity | good post-emergence activity
COC(=O)Cc1c(C)nn(-c2cnsc2)c1-c1ccccc1 [Compound 5-2] | good herbicidal pre-emergence activity | good post-emergence activity
COC(=O)Cc1c(C)nn(-c2cnsc2)c1-c1ccc(Cl)cc1 [Compound 5-28] | good herbicidal pre-emergence activity | good post-emergence activity
COC(=O)Cc1c(C)nn(-c2cnsc2)c1-c1ccccn1 [Compound 5-115] | good herbicidal pre-emergence activity | good post-emergence activity
COC(=O)Cc1c(C)nn(-c2cnsc2)c1-c1ccc(Cl)cn1 [Compound 5-116] | good herbicidal pre-emergence activity | good post-emergence activity
COC(=O)Cc1c(C)nn(-c2cnsc2)c1-c1ccc(Br)cn1 [Compound 5-119] | good herbicidal pre-emergence activity | good post-emergence activity
COC(=O)Cc1c(C)nn(-c2cnsc2)c1-c1ccc(F)cc1 [Compound 5-131] | good herbicidal pre-emergence activity | good post-emergence activity
COC(=O)Cc1c(C)nn(-c2cnsc2)c1-c1nc2ccccc2s1 [Compound 5-216] | good herbicidal pre-emergence activity | good post-emergence activity
COC(=O)Cc1c(C)nn(-c2cnsc2)c1-c1ncc(Br)cn1 [Compound 5-227] | good herbicidal pre-emergence activity | good post-emergence activity

SMILES | herbicidal pre-emergence activity against a number of harmful plants (harmful plants) | post-emergence activity against a broad spectrum of weed-grasses and broad-leaved weeds [1]
COC(=O)Cc1c(C)nn(-c2cnsc2)c1-c1ccc2ccccc2n1 [Compound 5-239] | good herbicidal pre-emergence activity | good post-emergence activity
COC(=O)Cc1c(C)nn(-c2cnsc2)c1-c1cc2ccccc2cn1 [Compound 5-240] | good herbicidal pre-emergence activity | good post-emergence activity
Cc1nn(-c2cncs2)c(-c2ccc(Cl)cc2)c1CC(=O)O [Compound 7-29, [5-(4-Chlorophenyl)-3-methyl-1-(1,3-thiazol-5-yl)-1H-pyrazol-4-yl]acetic acid] | good herbicidal pre-emergence activity | good post-emergence activity
COC(=O)Cc1c(C)nn(-c2cncs2)c1-c1ccccc1 [Compound 8-2] | good herbicidal pre-emergence activity | good post-emergence activity
COC(=O)Cc1c(C)nn(-c2cncs2)c1-c1ccco1 [Compound 8-4] | good herbicidal pre-emergence activity | good post-emergence activity
COC(=O)Cc1c(C)nn(-c2cncs2)c1-c1ccc(C)cc1 [Compound 8-16] | good herbicidal pre-emergence activity | good post-emergence activity
COC(=O)Cc1c(C)nn(-c2cncs2)c1-c1ccc(Cl)cc1 [Compound 8-28, methyl[5-(4-chlorophenyl)-3-methyl-1-(1,3-thiazol-5-yl)-1H-pyrazol-4-yl]acetate] | good herbicidal pre-emergence activity | good post-emergence activity
COC(=O)Cc1c(C)nn(-c2cncs2)c1-c1ccc(C(F)(F)F)cc1 [Compound 8-32] | good herbicidal pre-emergence activity | good post-emergence activity
COC(=O)Cc1c(C)nn(-c2cncs2)c1-c1sccc1C [Compound 8-64] | good herbicidal pre-emergence activity | good post-emergence activity
COC(=O)Cc1c(C)nn(-c2cncs2)c1-c1ccc(Br)s1 [Compound 8-69] | good herbicidal pre-emergence activity | good post-emergence activity
COC(=O)Cc1c(C)nn(-c2cncs2)c1-c1ccccn1 [Compound 8-117] | good herbicidal pre-emergence activity | good post-emergence activity
COC(=O)Cc1c(C)nn(-c2cncs2)c1-c1ccc(Cl)cn1 [Compound 8-118] | good herbicidal pre-emergence activity | good post-emergence activity
COC(=O)Cc1c(C)nn(-c2cncs2)c1-c1ccc(Br)cn1 [Compound 8-121] | good herbicidal pre-emergence activity | good post-emergence activity
COC(=O)Cc1c(C)nn(-c2cncs2)c1-c1ccc(F)cc1 [Compound 8-133] | good herbicidal pre-emergence activity | good post-emergence activity
COC(=O)Cc1c(C)nn(-c2cncs2)c1-c1nc2ccccc2s1 [Compound 8-219] | good herbicidal pre-emergence activity | good post-emergence activity
COC(=O)Cc1c(C)nn(-c2cncs2)c1-c1ncc(Cl)cn1 [Compound 8-229] | good herbicidal pre-emergence activity | good post-emergence activity
